“Also recorded” adds a separate entry of the source.

Format in all cases: cell-based, rat
Test [1] concerns AY-27 cells. Put plainly: Conventional scratch wound assay. The following applies: compared to SdM and Mock-TGF. The method, then:
Sub-confluent AY-27 cells were detached and 5×10^6 were seeded into 6-well tissue culture plates. The cells were grown to 100% confluency before treatment with Mock-TGF, SdM or 3 ng/ml TGF-β1 in duplicates for 24 h and 48 h. An in vitro “scratch wound” was created by scraping the confluent cell monolayer with a sterile pipette tip to make an approximate 1.0 mm gap. Three fixed points were marked in each well and phase-contrast images were captured at these same points over the 24 h and 48 h treatment course. The area of cells that had migrated beyond the ‘wound’ was estimated by superimposing a 5 mm×5 mm grid over the ‘wound’, and this was expressed as percentage when divided with the area of the ‘wound’.
(§1) FIG. 10 details results of a conventional motility assay (A) and the Matrigel invasion assay (B). […] Cells were treated with Mock-TGF (i), SdM (ii) or 3 ng.ml TGF-β1 (iii) and images were captured after 24 h and 48 h. The percentage of wound healing was calculated by counting the number of boxes at least half covered by cells in the 5 mm×5 mm grid-rule (A). […] Cells were treated with Mock-TGF (i), SdM (ii) or TGF-β1 (iii) and cells that passed successfully through the matrigel membrane after 24 h and after 48 h were Giemsa stained and enumerated.

The subject of test [2] is AY-27 cells. The test can be described thus: Conventional Matrigel invasion assay. The settings on record: 24 h and 48 h, compared to Mock-TGF and SdM, p<0.05 Student's t-test. The method, then:
FCS (10%) in 0.75 ml RPMI-1640 acted as the chemo-attractant. This was added to the lower compartment of 24-well BioCoat Matrigel invasion chambers (Becton Dickinson Labware, Bedford, Mass.) with an 8-μm pore polycarbonate filter coated with Matrigel. In the upper compartment, 8×10^5 cells/well in SdM were placed in triplicate wells and incubated for 24 h and 48 h at 37° C. in a humidified incubator with 5% CO2. After incubation, the cells that had passed through the filter into the lower wells were stained with Speedy-Diff Rapid Giemsa (Clin-Tech Ltd, Essex, UK. #61078, #61079, #61080) and counted by assessing 10 random high power fields images using ×400 magnification on a Leitz Labrodux K (Germany) light microscope.
as §1

Test [3] relates to AY-27 cells. The test can be described thus: Assay of present invention (motility towards agarose chemo-attractant matrix). The following applies: compared to Mock-TGF and SdM. The method, then: Ten millimetre coverslips were seeded with AY-27 cells at a density of 5×10^5 and grown to 100% confluency in 12-well plates. The AY-27 cells at 100% confluency on 10 mm coverslips were removed (A) and washed vigorously using SdM medium (B).
In a separate 12-well culture plate, 1 ml of heated 2% agarose matrix consisting of 50% FCS and 50% supplemented RPMI thoroughly mixed was pipetted into each well, and allowed to cool and solidify (C).
A sterile 12 mm diameter metal ring was then used to cut out a circular area in the centre of the matrix (D & E) to provide a cell receiving zone and also to expose a portion of the supporting substrate to form the bridging portion between the cell receiving zone and the agent receiving matrix.
AY-27 cells on the 10 mm coverslip were then placed into the empty tissue receiving zone from which the agarose had been removed (F) such that the sample is spaced apart from and surrounded by the agarose (chemo-attractant agent receiving matrix).
An indentation provided in the cell receiving zone, allows reproducible locating of the coverslip including the cells to be tested in the cell receiving zone. The indentation is of suitable depth such that the top surface of the located slide is substantially flush with surrounding surface of the receiving surface. […]

Take “TGF-β1: Recombinant human TGF-β1 (R&D systems), a known promoter to tumour progression”: the “motility / wound closure” value is on record as “earlier wound closure” in test [1] (3 ng/ml TGF-β1, 24 h) and “this effect did not persist” in test [1] (3 ng/ml TGF-β1, 48 h). In addition, the “cells migrated across the matrigel” value in test [2] is “Significantly more cells were present in the membrane; also recorded: significantly more TGF-β1 treated cells migrated across the matrigel”. Besides, the “numbers of migrating cells (grid boxes covered)” value in test [3] (3 ng/ml TGF-β1, 24 h) was “no significant differences”; in test [3] (3 ng/ml TGF-β1, 48 h, p<0.05 student t-test), “significantly more cells had migrated; also recorded: significantly greater numbers”.

(Values after patent US20090325219A1, “DEVICE, SYSTEM AND ASSAY FOR MEASURING CELL MOTILITY” (The Queen's University of Belfast, priority 2006, published 2009).)
